Source: publication PMC12240781 (Frontiers in Pharmacology, 2025)

Key:
in vitro = conditions: for Papp at 6 h, 25 μg/mL: PAMPA; for Increase in Papp: with probiotic bacteria vs control without probiotics
Procedure: Hydrophobic MultiScreen PVDF microfiltration plates with 96 wells and a pore diameter of 0.45 μm (Millipore, USA) were used as acceptor plates and as supports for the artificial membrane. Each well of the acceptor plate was impregnated with 6 μL of a 2% lecithin solution in n-dodecane, and after solvent evaporation, an artificial membrane was formed. To the corresponding wells of the acceptor plate, 200 μL of PBS buffer (pH 7.4) was added, while 300 μL of the tested compound solution in respective buffer was added to the wells of the donor plate (MultiScreen Transport Receiver Plate, Millipore, USA). All analyses were conducted in triplicate at three different pH values in the donor compartment, while the pH value in the acceptor compartment was always 7.4. The donor plate was aligned with the acceptor plate to initiate incubation. Incubation of samples was performed at 37°C in a sealed PAMPA system to minimize oxygen exposure. […] Before HPLC injection, protein precipitation was achieved by diluting a 50 μL sample from the donor compartment fivefold with acetonitrile, followed by centrifugation at 15,000 rpm for 10 min at +4°C, as described by Đanić et al. ([Ðanić et al., 2019]). Subsequently, 100 μL of the supernatant was directly injected into the HPLC system.
After determining the concentrations of the tested compounds in the donor and acceptor wells, apparent permeability coefficients (Papp) were calculated and expressed in units of cm/s based on the equation: Papp=C×−ln 1−Ca/Ceq where C is a correction factor calculated as: C=Vd×Va/Vd+Va×S×t
The equilibrium drug concentration (Ceq) was determined using mass balance: Ceq=Cd×Vd+Ca×Va/Vd+Va
In these equations, Ca represents the drug concentration in the acceptor compartment after 6 h, Ceq is the equilibrium drug concentration determined based on mass balance, Va and Vd denote the volumes of the acceptor and donor compartments, respectively, measured in milliliters, t represents the time period over which permeability was assessed, expressed in seconds, and S refers to the membrane surface area in square centimeters. The surface area of the artificial membrane was calculated to be 0.24 cm^2, as the acceptor filter membrane plates have a surface area of 0.32 cm^2 and a porosity of 75%, according to the manufacturer’s data.
Sample analysis was performed using high-performance liquid chromatography (HPLC; Dionex) with a diode array detector (DAD). […] Briefly, the chromatographic analysis was performed using a reverse-phase Zorbax Eclipse Plus C18 column (150 mm × 2.1 mm, 5 μm; Agilent Technologies, USA), coupled with a Zorbax Extend C18 guard column (12.5 mm × 2.1 mm, 5 μm; Agilent Technologies, USA). During the analysis, the column temperature was maintained at a constant 25°C, and the injection volume was 20 μL. Elution was performed using an isocratic program, with the mobile phase consisting of 50% AcN and 50% phosphate buffer adjusted to pH 3.3 with orthophosphoric acid, with the addition of 0.5 mL triethylamine as a column modifier. The total analysis time was 5 min, with a constant flow rate of the mobile phase at 0.3 mL/min. […] The eluate was monitored using a UV/DAD detector at a wavelength of 276 nm.

[1] = pH 5.8, Henderson-Hasselbalch equation
[2] = cited from earlier work

Cn1cnc([N+](=O)[O-])c1Sc1ncnc2nc[nH]c12 [azathioprine]
Papp at 6 h, 25 μg/mL (in vitro; Permeability [Papp x10^−7] [cm/s]): 0.193 ± 0.014 ×10⁻⁶ cm/s | Papp at 6 h, 25 μg/mL (in vitro; Permeability class across the PAMPA membrane): < 1 ×10⁻⁶ cm/s | Papp at 6 h, 25 μg/mL (in vitro; pH 7.4, Permeability [Papp x10^−7] [cm/s]): 0.134 ± 0.005 ×10⁻⁶ cm/s | Rise of azathioprine levels in the acceptor compartment (in vitro; incubated with probiotics, 6 h): less than 1% | Increase in Papp (in vitro; pH 5.8): 2.2 fold | Increase in Papp (in vitro; pH 6.5): 1.9 fold | Increase in Papp (in vitro; pH 7.4): 2.5 fold | Increase of azathioprine concentration in the acceptor compartment (in vitro; with probiotics vs control without probiotics (AP vs. A), pH 5.8, 6 h): 18% | Increase of azathioprine concentration in the acceptor compartment (in vitro; with probiotics vs control without probiotics (AP vs. A), pH 7.4, 6 h): 57% | Increase of azathioprine concentration in the acceptor compartment (in vitro; with probiotics vs control without probiotics, pH 6.5, 6 h): 26% | Ionization percentage [1]: 0.84% | Biopharmaceutics Classification System (BCS) class ([2]; low solubility and low permeability, ref Bocci et al., 2022): Class IV | logP ([2]; ref Hansch et al., 1996): 0.1
